Experimental data published in US6911432B2, “Drugs, foods or drinks with the use of algae-derived physiologically active substances” (priority 1997, dated 2005).

Assays:
[1] = test system: iNOS; experiment: iNOS expression by western blotting and RT-PCR; assay type: cell-based; details: protein level by western blotting, messenger RNA level by RT-PCR
Procedure: The confirmation was carried out at protein level by western blotting and at messenger RNA level by RT-PCR. That is, the compounds used in the present invention are useful for treating and preventing diseases that require inhibition of NO production by inhibiting expression of iNOS which is overexpressed by various factors to produce excess NO.

[2] = test system: RAW264.7; experiment: antiproliferation assay, MTT method; assay type: cell-based, mouse
Procedure: (§1) Each fraction was sterilized by filtration and its 10 μl portion was placed in a well of a 96 well microtiter plate. […] The cell morphology was observed under an optical microscope. […] The absorbance at 590 nm was measured to determine a cell proliferation rate. (2) A 50 mM solution of agarobiose, agarotetraose or agarohexaose obtained in Example 3-(1) was sterilized by filtration and diluted 2-, 4-, 8-, 16-, 32-, 64- and 128-folds with sterilized water. […] [table] The number in Table 3 represents the dilution rate of the dilution added to the group whose absorbance at 590 nm was less than one-half of that of the control group to which water was added. […] Then, for agarobiose, agarotetraose and agarohexaose, the concentrations required for 50% proliferation inhibitory rate (IC50) are calculated based on the change in the absorbance at 590 nm, and are shown in Table 4.

[3] = test system: A-172; experiment: antiproliferation assay, MTT method; assay type: cell-based
Procedure: as §1

[4] = test system: HT-1080; experiment: antiproliferation assay, MTT method; assay type: cell-based
Procedure: as §1

[5] = test system: MCF7; experiment: antiproliferation assay, MTT method; assay type: cell-based, human
Procedure: as §1

[6] = test system: MKN45; experiment: antiproliferation assay, MTT method; assay type: cell-based, human
Procedure: as §1

[7] = test system: RPMI1788; experiment: antiproliferation assay, MTT method; assay type: cell-based, human
Procedure: as §1

[8] = test system: HepG2; experiment: antiproliferation assay, MTT method; assay type: cell-based, human
Procedure: as §1

[9] = test system: HCT116; experiment: antiproliferation assay, MTT method; assay type: cell-based, human
Procedure: as §1

[10] = test system: A549; experiment: antiproliferation assay, MTT method; assay type: cell-based, human
Procedure: as §1

[11] = test system: WiDr; experiment: antiproliferation assay, MTT method; assay type: cell-based, human
Procedure: as §1

[12] = test system: T-47D; experiment: antiproliferation assay, MTT method; assay type: cell-based, human
Procedure: as §1

[13] = test system: HeLa S3; experiment: antiproliferation assay, MTT method; assay type: cell-based, human
Procedure: as §1

[14] = test system: HT-29; experiment: antiproliferation assay, MTT method; assay type: cell-based, human
Procedure: as §1

[15] = test system: T24; experiment: antiproliferation assay, MTT method; assay type: cell-based, human
Procedure: as §1

[16] = test system: HL-60 cells; experiment: antiproliferation assay, MTT method, absorbance at 590 nm; assay type: cell-based, human; details: HL-60
[17] = reaction with L-cysteine or L-lysine in phosphate buffered saline at 37° C., thin layer chromatography; assay type: physicochemical
Procedure: (2) Agarobiose and agarohexaose obtained in Example 14-(1) were dissolved in water to prepare 100 mM aqueous solutions thereof. To each 25 μl of these solutions was added 50 μl of 100 mM aqueous L-cysteine solution, followed by addition of 925 μl of phosphate buffered saline. Then, the mixture was treated at 37° C. for 1 hour or 16 hours. The same reaction was repeated except that an aqueous solution containing the same concentration of L-lysine was used instead of the aqueous L-cysteine solution.
1 μl of a sample from each reaction was spotted on a silica gel sheet 60 F254, developed with 1-butanol:ethanol:water=5:5:1 and detected by orcinol-sulfate method.

[18] = test system: HL-60 cells; experiment: viable cell count with Trypan Blue under a microscope; assay type: cell-based, human; details: final concentration 250 μM or 125 μM
Procedure: Agarobiose, agarotetraose, agarohexaose and agarooctaose (hereinafter, sometimes, these oligosuccharaides are referred to as agarooligosaccharides) obtained in Example 5 were dissolved in water at a concentration of 2.5 mM or 1.25 mM separately, and were sterilized by filtration. HL-60 cells were suspended in RPMI 1640 medium containing 10% fetal bovine serum at a concentration of 2.5×10^5 cells/4.5 ml and to this suspension was added 0.5 ml of each of the oligosaccharide solutions. The resultant mixture were incubated with 5% CO2 at 37° C. for 24 hours or 48 hours. A part of the cell culture was taken up, followed by addition of Trypan Blue thereto and observing under a microscope to count the number of viable cells.
That is, FIG. 14 illustrates the relation between the incubation time and the number of viable cells when HL-60 cells were cultured with addition of one of the oligosaccharides at the final concentration of 250 μM. FIG. 15 illustrates the relation between the incubation time and the number of viable cells when HL-60 cells were cultured with addition of one of the oligosaccharides at the final concentration of 125 μM. In FIGS. 14 and 15, the horizontal axes represent the incubation time (hrs.) and the vertical axes represent the number of viable cells (× 10^5/5 ml). The closed circle (●) represents the addition of water (control), the open diamond (⋄) represents the addition of agarobiose, the open circle (◯) represents the addition of agarotetraose, the open triangle (Δ) represents the addition of agarohexaose and the open square (□) represents the addition of agarooctaose.

[19] = dilution rate 1 corresponds to 5 mM in medium
[20] = read-out: IC50 (concentration required for 50% proliferation inhibitory rate)

IC50 [4, 20]: 216 µM
IC50 [5, 20]: 276 µM
IC50 [6, 20]: 196 µM
IC50 [8, 20]: 413 µM
IC50 [9, 20]: 158 µM
IC50 [10, 20]: 494 µM
IC50 [12, 20]: 183 µM
IC50 [13, 20]: 400 µM
IC50 [14, 20]: 208 µM
IC50 [15, 20]: 399 µM
IC50 [16, 20]: 97 µM
spot of the saccharide on thin layer chromatography after reaction ([17]; L-cysteine, 1 hour): disappeared
spot of the saccharide on thin layer chromatography after reaction ([17]; L-cysteine, 16 hours): disappeared
spot of the saccharide on thin layer chromatography after reaction ([17]; L-lysine, 16 hours): disappeared
SMILES: OC[C@H]1O[C@@H](O[C@H]2[C@H]3OC[C@@H]2O[C@@H](O[C@H]2[C@@H](O)[C@@H](CO)O[C@@H](O[C@H]4[C@H]5OC[C@@H]4OC(O)[C@H]5O)[C@@H]2O)[C@H]3O)[C@H](O)[C@@H](O)[C@H]1O (stereo partly drawn) [Agarotetraose, agarotetraose]
inhibition of iNOS expression [1]: inhibit this iNOS expression
dilution rate of the dilution added to the group whose absorbance at 590 nm was less than one-half of that of the control group [2, 19]: 32
IC50 [2, 20]: 133 µM
dilution rate of the dilution added to the group whose absorbance at 590 nm was less than one-half of that of the control group [3, 19]: 16
IC50 [3, 20]: 185 µM
dilution rate of the dilution added to the group whose absorbance at 590 nm was less than one-half of that of the control group [4, 19]: 16
dilution rate of the dilution added to the group whose absorbance at 590 nm was less than one-half of that of the control group [5, 19]: 16
dilution rate of the dilution added to the group whose absorbance at 590 nm was less than one-half of that of the control group [6, 19]: 16
dilution rate of the dilution added to the group whose absorbance at 590 nm was less than one-half of that of the control group [7, 19]: 128
IC50 [7, 20]: 28 µM
dilution rate of the dilution added to the group whose absorbance at 590 nm was less than one-half of that of the control group [8, 19]: 8
dilution rate of the dilution added to the group whose absorbance at 590 nm was less than one-half of that of the control group [9, 19]: 32
dilution rate of the dilution added to the group whose absorbance at 590 nm was less than one-half of that of the control group [10, 19]: 8
dilution rate of the dilution added to the group whose absorbance at 590 nm was less than one-half of that of the control group [11, 19]: 8
IC50 [11, 20]: 399 µM
dilution rate of the dilution added to the group whose absorbance at 590 nm was less than one-half of that of the control group [12, 19]: 16
dilution rate of the dilution added to the group whose absorbance at 590 nm was less than one-half of that of the control group [13, 19]: 8
dilution rate of the dilution added to the group whose absorbance at 590 nm was less than one-half of that of the control group [14, 19]: 16
dilution rate of the dilution added to the group whose absorbance at 590 nm was less than one-half of that of the control group [15, 19]: 8
dilution rate of the dilution added to the group whose absorbance at 590 nm was less than one-half of that of the control group ([16]; 50 mM solution diluted 2- to 128-fold, dilution rate 1 corresponds to 5 mM in the cell culture medium): 64
antiproliferation activity relative to the same concentration of the unreacted saccharide ([16]; after reaction with L-cysteine at 37° C. for 1 hour): 1/10
antiproliferation activity relative to the same concentration of the unreacted saccharide ([16]; after reaction with L-cysteine at 37° C. for 16 hours): 1/10
antiproliferation activity relative to the same concentration of the unreacted saccharide ([16]; after reaction with L-lysine at 37° C. for 16 hours): 1/10
apoptosis corpuscles [18]: apoptosis corpuscles were observed
number of viable cells as compared with the group to which water was added ([18]; 24 hours or 48 hours): decreased
